Reference: PubChem BioAssay (NCI)
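Grown in 96-well plates, cells were treated for 48 hours with each compound at five concentrations. Insufficient inhibition: endpoint recorded as highest concentration tested. TGI marks complete inhibition of growth.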

Legend:
Assay in all cases: NCI-60 cell line screen, 48 h
CAKI-1 renal = tested on: CAKI-1 renal
NCI-H23 lung = tested on: NCI-H23 lung
MOLT-4 leukemia = tested on: MOLT-4 leukemia
KM12 colon = tested on: KM12 colon
OVCAR-5 ovarian = tested on: OVCAR-5 ovarian
LXFL 529 NSCLC = tested on: LXFL 529 NSCLC
SK-MEL-5 melanoma = tested on: SK-MEL-5 melanoma
SNB-19 CNS = tested on: SNB-19 CNS
SK-MEL-2 melanoma = tested on: SK-MEL-2 melanoma
HOP-62 NSCLC = tested on: HOP-62 NSCLC
HT29 colon = tested on: HT29 colon
SF-268 CNS = tested on: SF-268 CNS
RXF-631 renal = tested on: RXF-631 renal
HCC-2998 colon = tested on: HCC-2998 colon
RPMI-8226 leukemia = tested on: RPMI-8226 leukemia
HOP-18 NSCLC = tested on: HOP-18 NSCLC
U251 CNS = tested on: U251 CNS
DMS 273 small cell lung = tested on: DMS 273 small cell lung
KM20L2 colon = tested on: KM20L2 colon
HCT-15 colon = tested on: HCT-15 colon
IGROV1 ovarian = tested on: IGROV1 ovarian
OVCAR-4 ovarian = tested on: OVCAR-4 ovarian
SNB-75 CNS = tested on: SNB-75 CNS
HL-60(TB) leukemia = tested on: HL-60(TB) leukemia
CCRF-CEM leukemia = tested on: CCRF-CEM leukemia
UO-31 renal = tested on: UO-31 renal
NCI-H460 lung = tested on: NCI-H460 lung
UACC-62 melanoma = tested on: UACC-62 melanoma
SNB-78 CNS = tested on: SNB-78 CNS
EKVX NSCLC = tested on: EKVX NSCLC
SW-620 colon = tested on: SW-620 colon
HCT-116 colon = tested on: HCT-116 colon
SN12C renal = tested on: SN12C renal
NCI-H226 lung = tested on: NCI-H226 lung
HOP-92 NSCLC = tested on: HOP-92 NSCLC
DLD-1 colon = tested on: DLD-1 colon
A498 renal = tested on: A498 renal
NCI-H522 lung = tested on: NCI-H522 lung
XF 498 CNS = tested on: XF 498 CNS
SK-MEL-28 melanoma = tested on: SK-MEL-28 melanoma
A549 NSCLC = tested on: A549 NSCLC
RXF 393 renal = tested on: RXF 393 renal
OVCAR-3 ovarian = tested on: OVCAR-3 ovarian
SF-295 CNS = tested on: SF-295 CNS
ACHN renal = tested on: ACHN renal
786-0 renal = tested on: 786-0 renal
LOX IMVI melanoma = tested on: LOX IMVI melanoma
COLO 205 colon = tested on: COLO 205 colon
TK-10 renal = tested on: TK-10 renal
M19-MEL melanoma = tested on: M19-MEL melanoma
M14 melanoma = tested on: M14 melanoma
OVCAR-8 ovarian = tested on: OVCAR-8 ovarian
MALME-3M melanoma = tested on: MALME-3M melanoma
SK-OV-3 ovarian = tested on: SK-OV-3 ovarian
K-562 leukemia = tested on: K-562 leukemia
DMS 114 small cell lung = tested on: DMS 114 small cell lung
UACC-257 melanoma = tested on: UACC-257 melanoma

Measured: TGI

COc1cc(Nc2cnc3ccc(N)cc3n2)cc(OC)c1OC
> 86.6 µM: OVCAR-3 ovarian
> 82.8 µM: LOX IMVI melanoma
> 100 µM: CAKI-1 renal | NCI-H23 lung | MOLT-4 leukemia | KM12 colon | OVCAR-5 ovarian | LXFL 529 NSCLC | SK-MEL-5 melanoma | SNB-19 CNS | SK-MEL-2 melanoma | HT29 colon | SF-268 CNS | RXF-631 renal | HCC-2998 colon | HOP-18 NSCLC | U251 CNS | DMS 273 small cell lung | KM20L2 colon | HCT-15 colon | IGROV1 ovarian | OVCAR-4 ovarian | SNB-75 CNS | UO-31 renal | NCI-H460 lung | UACC-62 melanoma | SNB-78 CNS | EKVX NSCLC | SW-620 colon | HCT-116 colon | SN12C renal | NCI-H226 lung | HOP-92 NSCLC | A498 renal | NCI-H522 lung | XF 498 CNS | SK-MEL-28 melanoma | A549 NSCLC | SF-295 CNS | ACHN renal | 786-0 renal | COLO 205 colon | TK-10 renal | M19-MEL melanoma | M14 melanoma | OVCAR-8 ovarian | MALME-3M melanoma | SK-OV-3 ovarian | DMS 114 small cell lung | UACC-257 melanoma
42.2 µM: RPMI-8226 leukemia
71.1 µM: HOP-62 NSCLC
98.5 µM: RXF 393 renal
> 56.6 µM: CCRF-CEM leukemia | K-562 leukemia
> 33.6 µM: DLD-1 colon
> 52.1 µM: HL-60(TB) leukemia
